Reference: patent US9475836B2, “Protopanoxadiol derivative, preparation method thereof and application thereof” (SHANG HAI INNOVATIVE RESEARCH CENTER OF TRADITIONAL CHINESE …, priority 2013, dated 2016)
Counter-ions that a name gives are not always drawn.

System: CUMS rats
Assay: Rat chronic unpredictable mild stress depression model (CUMS) test, sucrose preference
Format: in vivo, Wistar rats
Conditions: for effect on sucrose water intake of CUMS rats: 0.375 mg/kg
Protocol: Rat Chronic Unpredictable Mild Stress Depression Model (CUMS) Test
Variety: Wistar rats; Sex: male; Body Weight: 200 g.
Compounds I and II (being compounds of Examples 1 and 5 respectively), venlafaxine hydrochloride
Experimental method comprises starting CUMS program after adaptively breeding the rats for 1 week.
1) Sucrose preference experiment: all animals were fed with 1% sucrose water within the first 24 h; during the subsequent 24 h, all the animals were simultaneously fed with 1% sucrose water and common drinking water, then fasted with water deprivation for 23 h. Subsequently sucrose preference experiment was performed: simultaneously feeding the animals with 1% sucrose water and common drinking water, and measuring the drinking amounts of sucrose water and common drinking water for animals in 1 h by weighing the drinking water bottles. The animals were grouped evenly according to the animal body weight, liquid consumption amount and sucrose water consumption, and subjected to chronic unpredictable mild stress stimulation.
2) CUMS experiment: the rats were alternately given tens of stress stimulation factors each week, so that the rats cannot predict the stimulation duration of each stress factor and the stimulation to be given subsequently. The stimulation factor includes: flash stimulation, noise stimulation, rat cage inclination; and strange smell environment feeding, fasting, water deprivation.
3) Detection method comprising: detecting liquid consumption amount after food-fasting and water-deprivation for 21 h each week, recording the body weight, total liquid intake, water intake and sucrose water intake of each animal, and calculating sucrose water preference percentage (preference=(sucrose water intake/total liquid intake)×100%) and sucrose water consumption amount per gram of body weight of each rat.

[1] = 1.5 mg/kg and 0.75 mg/kg, after the fifth week (P<0.01 or 0.05)

Structure (SMILES): COc1ccc(C(CN(C)C)C2(O)CCCCC2)cc1 (centres unmarked) [Venlafaxine, venlafaxine hydrochloride, reference compound]
- sucrose water intake of CUMS rats as compared to the model group (20 mg/kg, during the fifth week (P<0.01)): statistically significant difference

Structure (SMILES): CC(C)(O)C1CCC(C)(C2CCC3(C)C2C(=NO)CC2C4(C)CCC(=NO)C(C)(C)C4CCC23C)O1 (centres unmarked) [Compound II]
- effect on sucrose water intake of CUMS rats: not significant
- sucrose water intake of CUMS rats as compared to the model group [1]: statistically significant difference

Structure (SMILES): CC(C)=CCCC(C)(O)C1CCC2(C)C1C(=NO)CC1C3(C)CCC(=NO)C(C)(C)C3CCC12C (centres unmarked) [Compound I]
- effect on sucrose water intake of CUMS rats: not significant
- sucrose water intake of CUMS rats as compared to the model group [1]: statistically significant difference
